ChEMBL document CHEMBL3885861, “Open TG-GATES”

Species: Rattus norvegicus
Assay: Open TG-GATES - Regimen: Single
Format: toxicity, organism-based, Sprague-Dawley
Set-up: regimen Single, gender Male, age 6 weeks
Conditions: in vivo, iv, 0 mg/kg, route intravenous injection, dose level Control; for APTT / Bas / Eos / Fbg / Hb / Ht / Lym / MCH / MCHC / MCV / Mono / PT / Plat / RBC / Ret / WBC: tissue Blood; for KIDNEY_L / KIDNEY_R / KIDNEY_TOTAL: tissue Kidney; for LIVER: tissue Liver; for ALP / ALT / AST / BUN / CRE / Ca / Cl / DBIL / GLC / IP / K / LDH / Na / PL / RALB / TBIL / TC / TG / TP / gamma-GTP: tissue Plasma

## CC(=O)OCC1=C(C(=O)O)N2C(=O)[C@@H](NC(=O)Cc3cccs3)[C@H]2SC1 [CEPHALOTHIN]
3 h
  TERMINAL_BW: 214.5 g
  APTT: 22.3 s
  Bas: 0%
  Eos: 0.8%
  Fbg: 274.6 mg/dL
  Hb: 13.2 g/dL
  Ht: 38.5%
  Lym: 80%
  MCH: 20.9 pg
  MCHC: 34.2%
  MCV: 61.2 fL
  Mono: 2.8%
  PT: 16.5 s
  Plat: 124.3 x10_4/uL
  RBC: 629.6 x10_4/ul
  Ret: 6.1%
  WBC: 84.8 x10_2/uL
  KIDNEY_L: 1 g
  KIDNEY_R: 1 g
  KIDNEY_TOTAL: 2 g
  LIVER: 10.2 g
  ALP: 1573.2 IU/L
  ALT: 46.4 IU/L
  AST: 85.6 IU/L
  BUN: 12.4 mg/dL
  CRE: 0.2 mg/dL
  Ca: 10.5 mg/dL
  Cl: 107.4 meq/L
  DBIL: 0 mg/dL
  GLC: 176.2 mg/dL
  IP: 7.6 mg/dL
  K: 4.3 meq/L
  LDH: 171.6 IU/L
  Na: 142 meq/L
  PL: 117.2 mg/dL
  RALB: 2.8 g/dL
  TBIL: 0.016 mg/dL
  TC: 60.8 mg/dL
  TG: 69.2 mg/dL
  TP: 5.1 g/dL
  gamma-GTP: 1 IU/L
6 h
  TERMINAL_BW: 214.9 g
  APTT: 22.2 s
  Bas: 0%
  Eos: 0.8%
  Fbg: 279.4 mg/dL
  Hb: 13.1 g/dL
  Ht: 38.1%
  Lym: 74.2%
  MCH: 21.1 pg
  MCHC: 34.3%
  MCV: 61.7 fL
  Mono: 2.4%
  PT: 16.2 s
  Plat: 129.1 x10_4/uL
  RBC: 618.8 x10_4/ul
  Ret: 6.4%
  WBC: 81.7 x10_2/uL
  KIDNEY_L: 1 g
  KIDNEY_R: 1 g
  KIDNEY_TOTAL: 2 g
  LIVER: 9.1 g
  ALP: 1313 IU/L
  ALT: 41.6 IU/L
  AST: 80 IU/L
  BUN: 9.2 mg/dL
  CRE: 0.2 mg/dL
  Ca: 10.2 mg/dL
  Cl: 105.4 meq/L
  DBIL: 0.002 mg/dL
  GLC: 184.8 mg/dL
  IP: 9.3 mg/dL
  K: 4.3 meq/L
  LDH: 176.2 IU/L
  Na: 141.4 meq/L
  PL: 122 mg/dL
  RALB: 2.8 g/dL
  TBIL: 0.02 mg/dL
  TC: 67.8 mg/dL
  TG: 41 mg/dL
  TP: 5.1 g/dL
  gamma-GTP: 1.4 IU/L
9 h
  TERMINAL_BW: 217.3 g
  APTT: 23.9 s
  Bas: 0%
  Eos: 1%
  Fbg: 305.4 mg/dL
  Hb: 13.5 g/dL
  Ht: 39.5%
  Lym: 81.4%
  MCH: 21 pg
  MCHC: 34%
  MCV: 61.6 fL
  Mono: 2%
  PT: 15.7 s
  Plat: 132.6 x10_4/uL
  RBC: 641.6 x10_4/ul
  Ret: 6.4%
  WBC: 93.1 x10_2/uL
  KIDNEY_L: 0.9 g
  KIDNEY_R: 1 g
  KIDNEY_TOTAL: 1.9 g
  LIVER: 9 g
  ALP: 1321.4 IU/L
  ALT: 37.2 IU/L
  AST: 81.2 IU/L
  BUN: 9.2 mg/dL
  CRE: 0.2 mg/dL
  Ca: 10.4 mg/dL
  Cl: 106.2 meq/L
  DBIL: 0 mg/dL
  GLC: 186.6 mg/dL
  IP: 9.6 mg/dL
  K: 4.3 meq/L
  LDH: 157.4 IU/L
  Na: 141.6 meq/L
  PL: 121.8 mg/dL
  RALB: 2.9 g/dL
  TBIL: 0.022 mg/dL
  TC: 67.4 mg/dL
  TG: 60 mg/dL
  TP: 5.3 g/dL
  gamma-GTP: 1.2 IU/L
24 h
  TERMINAL_BW: 225.8 g
  APTT: 21 s
  Bas: 0%
  Eos: 0.8%
  Fbg: 302.4 mg/dL
  Hb: 12.9 g/dL
  Ht: 37.9%
  Lym: 79.2%
  MCH: 21.2 pg
  MCHC: 33.9%
  MCV: 62.3 fL
  Mono: 2.4%
  PT: 16.5 s
  Plat: 128.1 x10_4/uL
  RBC: 607.2 x10_4/ul
  Ret: 6.3%
  WBC: 89.6 x10_2/uL
  KIDNEY_L: 1 g
  KIDNEY_R: 1 g
  KIDNEY_TOTAL: 1.9 g
  LIVER: 10.8 g
  ALP: 1398.6 IU/L
  ALT: 44.4 IU/L
  AST: 76.2 IU/L
  BUN: 17.2 mg/dL
  CRE: 0.2 mg/dL
  Ca: 10.9 mg/dL
  Cl: 105.8 meq/L
  DBIL: 0 mg/dL
  GLC: 189.4 mg/dL
  IP: 7.3 mg/dL
  K: 4.5 meq/L
  LDH: 221 IU/L
  Na: 142.4 meq/L
  PL: 145.8 mg/dL
  RALB: 3 g/dL
  TBIL: 0.012 mg/dL
  TC: 74.4 mg/dL
  TG: 74.6 mg/dL
  TP: 5.5 g/dL
  gamma-GTP: 1.4 IU/L
